Where two headings read alike, the source gives them in different places.
What was measured:
[1] = system: ASPC-1 human pancreatic cancer; assay: ASPC-1 human pancreatic cancer transplanted subcutaneously into nude mice; assay type: in vivo
Procedure: As a specific example of the therapeutic efficacy of the diesters, the 1,3 GLA-EPA propane diol diester was tested in the treatment of the ASPC-1 human pancreatic -cancer transplanted subcutaneously into nude mice which because they lack thymus function are able to accept foreign transplants without rejection. 15 mice were each injected subcutaneously with 5 million ASPC-1 cells suspended in Matrigel and DMEM buffer. In all animals a tumour developed whose size could be measured using callipers and whose volume could be estimated from the linear dimensions. Tumour size in each animal was measured twice weekly for five weeks. The animals were divided into three groups. 5 animals were used as controls and received 10 g/kg corn oil per day only. 5 animals received 10 g/kg corn oil per day but in addition received two injections per week of a dose of 1.5 g/kg of the GLA-EPA diester. […] The other 5 animals instead of the corn oil received 10 g/kg/day of the GLA-EPA diester. The treatments were continued for three weeks and then the tumours were allowed to grow for a further two weeks before the animals were sacrificed and the tumours excised and weighed. The mean tumour weights were: control group, 1240±290 mg; intravenous GLA-EPA group, 820±180 mg; oral GLA-EPA group, 490±160 mg. […] Thus the diesters are biologically active ways of administering the various fatty acids. The diesters can therefore be reasonably expected to exert the many desirable effects of the fatty acids which have been noted in many publications in the literature (e.g. Horrobin D F, ed., Omega-6 Essential Fatty Acids: Pathophysiology and Roles in Clinical Medicine: Wiley-Liss, New York, 1990.Simopoulos A P et al, eds, Health Effects of Omega-3 Polyunsaturated Fatty Acids in Seafoods, Karger, Basel, 1991. Fats and Oils in Human Nutrition, World Health Organization, Rome, 1994. Unsaturated Fatty Acids: Nutritional and Physiological Significance. British Nutrition Foundation, Chapman and Hall, London, 1992).

[2] = In vivo delivery, release and metabolism of diesters after oral or intravenous administration
Procedure: (§1) GLA was administered in the form of either GLA-GLA or GLA-EPA and EPA was administered in the form of GLA-EPA or EPA-EPA. The diesters were given either orally by gavage or intravenously in the form of a 20% emulsion made using 2% of oat galactolipid as an emulsifier in doses from about 0.1 to 2.0 g/kg. Animals were killed after 1, 2, 4, 8 and 24 hours and plasma, red cells and liver collected. The presence of the unmetabolised diesters was identified by high pressure liquid chromatography. The presence of fatty acids derived from the diesters and of metabolites of those fatty acids was checked by lipid extraction of the liver, plasma or red cells, by separation of that lipid fraction into triglycerides, phospholipids, cholesterol esters and free fatty acids by thin layer chromatography, by methylation of the fatty acids derived from those separated fractions and by analysis of those fatty acids using gas chromatography using methods well described in standard texts.

[3] = in vivo, po
Procedure: as §1

fasted rats = assay: Gastrointestinal ulceration in fasted rats; details: indomethacin 5-30 mg/kg or same amount as diester, sacrificed after 24 hours
Procedure: Doses of indomethacin known to cause gastrointestinal ulceration (5-30 mg/kg) were given to fasted rats either in the form of free indomnethacin or the same amount of indomethacin in a 1,3-propane diol diester with GLA in the other position. The animals were sacrificed after 24 hours and the whole gastrointestinal tract examined for ulceration.

[4] = system: normal fibroblast line, a breast cancer line and a malignant melanoma line; details: all cell lines: normal fibroblast, results set out in EPA-0 675 103; cited from earlier work

CC/C=C\C/C=C\C/C=C\C/C=C\C/C=C\CCCC(=O)OCCCOC(=O)CCCC/C=C\C/C=C\C/C=C\CCCCC [GLA-EPA, 1-(z,z,z-Octadeca-6,9,12-trienoyloxy)-3-(z,z,z,z,z-eicosa-5,8,11,14,17-pentaenoyloxy)propane]
tumour growth ([1]; both oral and intravenous administration): substantially inhibited
mean tumour weight ([1]; intravenous, 1.5 g/kg two injections per week for three weeks, 20% emulsion, tumours weighed at five weeks): 820 ± 180 mg
side effects or distress in the animals ([1]; mouse, in vivo): without causing any side effects or distress
tolerability of the intravenous emulsion ([1]; nude mice, 20% emulsion with 2% oat galactolipid, 1.5 g/kg twice weekly): very well tolerated and caused no haemolysis or thrombophlebitis
in vivo release of free GLA and EPA ([2]; intravenous infusion and oral administration of the diester emulsion): rapid in vivo release of free GLA and EPA

CCCCC/C=C\C/C=C\C/C=C\CCCCC(=O)OCCCOC(=O)CCCC/C=C\C/C=C\C/C=C\CCCCC [GLA-GLA, 1,3-(di-z,z,z-Octadeca-6,9,12-trienoyloxy)propane]
absorption and release of active moieties [3]: absorbed following oral administration and to release their active moieties

CCCCC/C=C\C/C=C\C/C=C\CCCCC(=O)OCCCOC(=O)Cc1c(C)n(C(=O)c2ccc(Cl)cc2)c2ccc(OC)cc12 [GLA-indomethacin, 1-(z,z,z-Octadeca-6,9,12-trienoyloxy)-3-(I-(4-chlorobenzoyl)-5-methoxy-2-methyl-indole-3-acetyloxy)propane]
absorption and release of active moieties [3]: absorbed following oral administration and to release their active moieties

COc1ccc2c(c1)c(CC(=O)O)c(C)n2C(=O)c1ccc(Cl)cc1 [indomethacin, reference compound]
ulceration of the whole gastrointestinal tract (fasted rats): extensive ulceration
intracellular level after incubation (cell penetration) [4]: very low

CCCCC/C=C\C/C=C\C/C=C\CCCCC(=O)OCCCOC(=O)Cc1c(C)n(C(=O)c2ccc(Cl)cc2)c2ccc(OC)cc12 [indomethacin-GLA]
intracellular level after incubation (cell penetration) [4]: very substantial amounts of both indomethacin-GLA and free indomethacin

CCCCCC=CCC=CCC=CCCCCC(=O)OCCCOC(=O)c1cccnc1 [niacin-GLA]
absorption and release of active moieties ([2]; oral administration): absorbed following oral administration and to release their active moieties
